Species: Rattus norvegicus
Assay: DrugMatrix - Regimen: Daily Repeat
Format: toxicity, organism-based, Sprague-Dawley
Set-up: regimen Daily Repeat, gender Male, age 6-8 weeks
Conditions: in vivo, po, route oral GAVAGE, vehicle .5 % CMC; for BASOPHIL / EOSINOPHIL / ERYTHROCYTE COUNT / HEMATOCRIT / HEMOGLOBIN / LEUKOCYTE COUNT / LYMPHOCYTE / MEAN CORPUSCULAR HEMOGLOBIN / MEAN CORPUSCULAR HEMOGLOBIN CONCENTRATION / MEAN CORPUSCULAR VOLUME / MONOCYTE / NEUTROPHIL / PLATELET COUNT: tissue Blood; for ALANINE AMINOTRANSFERASE / ALBUMIN / ALKALINE PHOSPHATASE / ASPARTATE AMINOTRANSFERASE / BLOOD UREA NITROGEN / CHLORIDE / CHOLESTEROL / CREATINE PHOSPHOKINASE / CREATININE / GLUCOSE / PHOSPHORUS / POTASSIUM / SODIUM / TOTAL BILIRUBIN / TOTAL PROTEIN: tissue Plasma
[1] = 0 mg/kg, 72 h, dose level Control, time 3 day
[2] = 0 mg/kg, 120 h, dose level Control, time 5 day
[3] = 300 mg/kg, 72 h, dose level Low, time 3 day
[4] = 300 mg/kg, 120 h, dose level Low, time 5 day
[5] = 1500 mg/kg, 72 h, dose level High, time 3 day
[6] = 1500 mg/kg, 120 h, dose level High, time 5 day

O=C1CCc2cc(OCCCCc3nnnn3C3CCCCC3)ccc2N1 [CILOSTAZOL]
BASOPHIL [1]: 0.68%
EOSINOPHIL [1]: 0.46%
ERYTHROCYTE COUNT [1]: 7.15 x10E6/uL
HEMATOCRIT [1]: 45.44%
HEMOGLOBIN [1]: 14.1 G/DL
LEUKOCYTE COUNT [1]: 9.78 x10E3/uL
LYMPHOCYTE [1]: 84.44%
MEAN CORPUSCULAR HEMOGLOBIN [1]: 19.72 pg
MEAN CORPUSCULAR HEMOGLOBIN CONCENTRATION [1]: 31 G/DL
MEAN CORPUSCULAR VOLUME [1]: 63.66 fL
MONOCYTE [1]: 2.14%
NEUTROPHIL [1]: 11.16%
PLATELET COUNT [1]: 1378.2 x10E3/uL
ALANINE AMINOTRANSFERASE [1]: 42.33 u/L
ALBUMIN [1]: 3.8 G/DL
ALKALINE PHOSPHATASE [1]: 388.17 u/L
ASPARTATE AMINOTRANSFERASE [1]: 68 u/L
BLOOD UREA NITROGEN [1]: 16.17 mg/dL
CHLORIDE [1]: 96.67 MEQ/L
CHOLESTEROL [1]: 71 mg/dL
CREATINE PHOSPHOKINASE [1]: 156.17 u/L
CREATININE [1]: 0.57 mg/dL
GLUCOSE [1]: 193.67 mg/dL
PHOSPHORUS [1]: 11.43 mg/dL
POTASSIUM [1]: 7 MEQ/L
SODIUM [1]: 140.33 MEQ/L
TOTAL BILIRUBIN [1]: 0.48 mg/dL
TOTAL PROTEIN [1]: 6.8 G/DL
BASOPHIL [2]: 1.47%
EOSINOPHIL [2]: 1%
ERYTHROCYTE COUNT [2]: 7.12 x10E6/uL
HEMATOCRIT [2]: 45.47%
HEMOGLOBIN [2]: 14.1 G/DL
LEUKOCYTE COUNT [2]: 11.38 x10E3/uL
LYMPHOCYTE [2]: 82.57%
MEAN CORPUSCULAR HEMOGLOBIN [2]: 19.82 pg
MEAN CORPUSCULAR HEMOGLOBIN CONCENTRATION [2]: 31.02 G/DL
MEAN CORPUSCULAR VOLUME [2]: 63.88 fL
MONOCYTE [2]: 2.2%
NEUTROPHIL [2]: 11.97%
PLATELET COUNT [2]: 1267 x10E3/uL
ALANINE AMINOTRANSFERASE [2]: 38 u/L
ALBUMIN [2]: 3.72 G/DL
ALKALINE PHOSPHATASE [2]: 391 u/L
ASPARTATE AMINOTRANSFERASE [2]: 65.83 u/L
BLOOD UREA NITROGEN [2]: 14.17 mg/dL
CHLORIDE [2]: 107.67 MEQ/L
CHOLESTEROL [2]: 61 mg/dL
CREATINE PHOSPHOKINASE [2]: 148.33 u/L
CREATININE [2]: 0.57 mg/dL
GLUCOSE [2]: 177.17 mg/dL
PHOSPHORUS [2]: 12.07 mg/dL
POTASSIUM [2]: 7.2 MEQ/L
SODIUM [2]: 151.5 MEQ/L
TOTAL BILIRUBIN [2]: 0.58 mg/dL
TOTAL PROTEIN [2]: 6.72 G/DL
BASOPHIL [3]: 0.4%
EOSINOPHIL [3]: 0.5%
ERYTHROCYTE COUNT [3]: 6.67 x10E6/uL
HEMATOCRIT [3]: 43%
HEMOGLOBIN [3]: 13.6 G/DL
LEUKOCYTE COUNT [3]: 12.31 x10E3/uL
LYMPHOCYTE [3]: 81.4%
MEAN CORPUSCULAR HEMOGLOBIN [3]: 20.4 pg
MEAN CORPUSCULAR HEMOGLOBIN CONCENTRATION [3]: 31.6 G/DL
MEAN CORPUSCULAR VOLUME [3]: 64.55 fL
MONOCYTE [3]: 2.4%
NEUTROPHIL [3]: 14%
PLATELET COUNT [3]: 1378 x10E3/uL
ALANINE AMINOTRANSFERASE [3]: 40.67 u/L
ALBUMIN [3]: 3.6 G/DL
ALKALINE PHOSPHATASE [3]: 331.33 u/L
ASPARTATE AMINOTRANSFERASE [3]: 59 u/L
BLOOD UREA NITROGEN [3]: 14.67 mg/dL
CHLORIDE [3]: 96 MEQ/L
CHOLESTEROL [3]: 75.33 mg/dL
CREATINE PHOSPHOKINASE [3]: 120.33 u/L
CREATININE [3]: 0.53 mg/dL
GLUCOSE [3]: 178.33 mg/dL
PHOSPHORUS [3]: 11.33 mg/dL
POTASSIUM [3]: 6.4 MEQ/L
SODIUM [3]: 141 MEQ/L
TOTAL BILIRUBIN [3]: 0.33 mg/dL
TOTAL PROTEIN [3]: 6.43 G/DL
BASOPHIL [4]: 1.17%
EOSINOPHIL [4]: 0.37%
ERYTHROCYTE COUNT [4]: 7.17 x10E6/uL
HEMATOCRIT [4]: 46.5%
HEMOGLOBIN [4]: 14.43 G/DL
LEUKOCYTE COUNT [4]: 13.79 x10E3/uL
LYMPHOCYTE [4]: 85.57%
MEAN CORPUSCULAR HEMOGLOBIN [4]: 20.2 pg
MEAN CORPUSCULAR HEMOGLOBIN CONCENTRATION [4]: 31.07 G/DL
MEAN CORPUSCULAR VOLUME [4]: 64.9 fL
MONOCYTE [4]: 2.3%
NEUTROPHIL [4]: 9.6%
PLATELET COUNT [4]: 1545 x10E3/uL
ALANINE AMINOTRANSFERASE [4]: 41 u/L
ALBUMIN [4]: 3.77 G/DL
ALKALINE PHOSPHATASE [4]: 365.67 u/L
ASPARTATE AMINOTRANSFERASE [4]: 63 u/L
BLOOD UREA NITROGEN [4]: 14.67 mg/dL
CHLORIDE [4]: 106.67 MEQ/L
CHOLESTEROL [4]: 67.33 mg/dL
CREATINE PHOSPHOKINASE [4]: 135 u/L
CREATININE [4]: 0.67 mg/dL
GLUCOSE [4]: 167 mg/dL
PHOSPHORUS [4]: 12.53 mg/dL
POTASSIUM [4]: 7.53 MEQ/L
SODIUM [4]: 151.33 MEQ/L
TOTAL BILIRUBIN [4]: 0.43 mg/dL
TOTAL PROTEIN [4]: 6.77 G/DL
BASOPHIL [5]: 0.53%
EOSINOPHIL [5]: 0.27%
ERYTHROCYTE COUNT [5]: 6.95 x10E6/uL
HEMATOCRIT [5]: 45.23%
HEMOGLOBIN [5]: 14.2 G/DL
LEUKOCYTE COUNT [5]: 13.97 x10E3/uL
LYMPHOCYTE [5]: 82.9%
MEAN CORPUSCULAR HEMOGLOBIN [5]: 20.43 pg
MEAN CORPUSCULAR HEMOGLOBIN CONCENTRATION [5]: 31.4 G/DL
MEAN CORPUSCULAR VOLUME [5]: 65.13 fL
MONOCYTE [5]: 2.43%
NEUTROPHIL [5]: 13.1%
PLATELET COUNT [5]: 1348.33 x10E3/uL
ALANINE AMINOTRANSFERASE [5]: 34.67 u/L
ALBUMIN [5]: 3.77 G/DL
ALKALINE PHOSPHATASE [5]: 340.33 u/L
ASPARTATE AMINOTRANSFERASE [5]: 60.33 u/L
BLOOD UREA NITROGEN [5]: 12 mg/dL
CHLORIDE [5]: 95 MEQ/L
CHOLESTEROL [5]: 65.33 mg/dL
CREATINE PHOSPHOKINASE [5]: 141 u/L
CREATININE [5]: 0.5 mg/dL
GLUCOSE [5]: 178.33 mg/dL
PHOSPHORUS [5]: 11.9 mg/dL
POTASSIUM [5]: 6.77 MEQ/L
SODIUM [5]: 140.33 MEQ/L
TOTAL BILIRUBIN [5]: 0.43 mg/dL
TOTAL PROTEIN [5]: 6.67 G/DL
BASOPHIL [6]: 0.83%
EOSINOPHIL [6]: 0.37%
ERYTHROCYTE COUNT [6]: 7 x10E6/uL
HEMATOCRIT [6]: 45.1%
HEMOGLOBIN [6]: 13.87 G/DL
LEUKOCYTE COUNT [6]: 10.98 x10E3/uL
LYMPHOCYTE [6]: 80.03%
MEAN CORPUSCULAR HEMOGLOBIN [6]: 19.8 pg
MEAN CORPUSCULAR HEMOGLOBIN CONCENTRATION [6]: 30.67 G/DL
MEAN CORPUSCULAR VOLUME [6]: 64.47 fL
MONOCYTE [6]: 2.53%
NEUTROPHIL [6]: 15.27%
PLATELET COUNT [6]: 1161 x10E3/uL
ALANINE AMINOTRANSFERASE [6]: 45 u/L
ALBUMIN [6]: 3.67 G/DL
ALKALINE PHOSPHATASE [6]: 377 u/L
ASPARTATE AMINOTRANSFERASE [6]: 66.33 u/L
BLOOD UREA NITROGEN [6]: 12 mg/dL
CHLORIDE [6]: 106.67 MEQ/L
CHOLESTEROL [6]: 66.67 mg/dL
CREATINE PHOSPHOKINASE [6]: 130 u/L
CREATININE [6]: 0.6 mg/dL
GLUCOSE [6]: 184.33 mg/dL
PHOSPHORUS [6]: 12.83 mg/dL
POTASSIUM [6]: 7.27 MEQ/L
SODIUM [6]: 151.33 MEQ/L
TOTAL BILIRUBIN [6]: 0.4 mg/dL
TOTAL PROTEIN [6]: 6.6 G/DL
